How the values were obtained:
Assay type in all cases: in vivo
[1] = tested on: ivyleaf morningglory (Ipomoea hederacea); assay: Test Example 1: foliar treatment of field; conditions: foliar spray, dosage 125 g/ha, 16 days after application
Procedure: (§1) A cylindrical plastic pot having a diameter of 10 cm and a depth of 10 cm was filled with soil and then seeded with ivyleaf morningglory (Ipomoea hederacea) and velvetleaf (Abutilon theophrasti). These test plants were grown in a greenhouse for 10 days. Then, each of compounds 1-2, 1-42, 1-45, 1-48, 2-2, 2-7, 2-42, 2-45, 3-2, 3-12, 4-7, 4-85, 5-12-R, 5-12-S, 5-17, 6-2, 7-2, 7-6, 7-8, 7-12, 7-48, 7-50, 7-84, 7-118, 7-119, 7-125, 9-7, 9-27 and 9-45 was formulated into an emulsifiable concentrate according to Formulation Example 2 and then diluted to the prescribed amount with water containing a spreading agent and the dilution was uniformly sprayed over the foliage of the test plants with a sprayer at a rate of 1000 liters per hectare. After the application, the test plants were grown in the greenhouse for 16 days, and the herbicidal activity was determined.

[2] = tested on: velvetleaf (Abutilon theophrasti); assay: Test Example 1: foliar treatment of field; conditions: foliar spray, dosage 125 g/ha, 16 days after application
Procedure: as §1

[3] = tested on: barnyardgrass (Echinochloa crus-galli); assay: Test Example 7: foliar spray, herbicidal activity index; parameters: key: “0” means that there was no or little difference in the degree of germination or growth between the treated and the untreated tested plants at the time of examination; “10” means that the test plants died complete or their germination or growth was completely inhibited; conditions: 4 days after application, index 0-10
Procedure: (§2) A plastic pot having longer side of 27 cm, shorter side of 19 cm and depth of 7 cm was filled with soil and then seeded with large crabgrass (Digitaria sanguinalis) and giant foxtail (Setaria faberi). Nine days after, barnyardgrass (Echinochloa crus-galli) was seeded therein and grown for 15 days in a greenhouse. Further, a plastic pot having longer side of 16.5 cm, shorter side of 12 cm and depth of 7 cm was filled with soil and then seeded with wild oat (Avena fatua), and grown for 18 days in a greenhouse. Then, each of the present compound 1-45 and B was formulated into an emulsifiable concentrate according to Formulation Example 2 and then diluted to the prescribed amount with water containing a spreading agent and the dilution was uniformly sprayed over the foliage of the test plants with a sprayer at a rate of 1000 liters per hectare. After the application, the test plants were grown in the greenhouse for 4 days, and the herbicidal activity was examined. (In the Table 13, the test plants are shown as follows.
(§3) Barnyardgrass: B, Large crabgrass: LC, Giant foxtail: GF, Wild oat: W

[4] = tested on: giant foxtail (Setaria faberi); assay: as above; parameters: key: “0” means that there was no or little difference in the degree of germination or growth between the treated and the untreated tested plants at the time of examination; “10” means that the test plants died complete or their germination or growth was completely inhibited; conditions: 4 days after application, index 0-10
Procedure: as §2, §3

[5] = tested on: large crabgrass (Digitaria sanguinalis); assay: as above; parameters: key: “0” means that there was no or little difference in the degree of germination or growth between the treated and the untreated tested plants at the time of examination; “10” means that the test plants died complete or their germination or growth was completely inhibited; conditions: 4 days after application, index 0-10
Procedure: as §2, §3

wild oat (Avena fatua) [6] = assay: as above; conditions: 4 days after application, index 0-10
Procedure: as §2, §3

[7] = tested on: barnyardgrass (Echinochloa crus-galli); assay: Test Example 6: foliar spray, herbicidal activity index; parameters: key: “0” means that there was no or little difference in the degree of germination or growth between the treated and the untreated tested plants at the time of examination; “10” means that the test plants died complete or their germination or growth was completely inhibited; conditions: 4 days after application, index 0-10
Procedure: as §2, with “1-67” for “1-45”, “A” for “B”, “1000liters” for “1000 liters”, “12,” for “13,”
as §3

[8] = tested on: giant foxtail (Setaria faberi); assay: as above; parameters: key: “0” means that there was no or little difference in the degree of germination or growth between the treated and the untreated tested plants at the time of examination; “10” means that the test plants died complete or their germination or growth was completely inhibited; conditions: 4 days after application, index 0-10
Procedure: as §2, with “1-67” for “1-45”, “A” for “B”, “1000liters” for “1000 liters”, “12,” for “13,”
as §3

[9] = tested on: large crabgrass (Digitaria sanguinalis); assay: as above; conditions: 4 days after application, index 0-10
Procedure: as §2, with “1-67” for “1-45”, “A” for “B”, “1000liters” for “1000 liters”, “12,” for “13,”
as §3

wild oat (Avena fatua) [10] = assay: as above; conditions: 4 days after application, index 0-10
Procedure: as §2, with “1-67” for “1-45”, “A” for “B”, “1000liters” for “1000 liters”, “12,” for “13,”
as §3

SMILES	growth of ivyleaf morningglory (herbicidal activity) [1]	growth of velvetleaf (herbicidal activity) [2]	Herbicidal activity B ([3]; dosage 32 g/ha)	Herbicidal activity B ([3]; dosage 125 g/ha)	Herbicidal activity GF ([4]; dosage 32 g/ha)	Herbicidal activity GF ([4]; dosage 125 g/ha)	Herbicidal activity LC ([5]; dosage 32 g/ha)	Herbicidal activity LC ([5]; dosage 125 g/ha)	Herbicidal activity W (wild oat (Avena fatua) [6]; dosage 32 g/ha)	Herbicidal activity W (wild oat (Avena fatua) [6]; dosage 125 g/ha)	Herbicidal activity B ([7]; dosage 32 g/ha)	Herbicidal activity B ([7]; dosage 125 g/ha)	Herbicidal activity GF ([8]; dosage 32 g/ha)	Herbicidal activity GF ([8]; dosage 125 g/ha)	Herbicidal activity LC ([9]; dosage 32 g/ha)	Herbicidal activity LC ([9]; dosage 125 g/ha)	Herbicidal activity W (wild oat (Avena fatua) [10]; dosage 32 g/ha)	Herbicidal activity W (wild oat (Avena fatua) [10]; dosage 125 g/ha)
COC(=O)COc1cc(OC)nc(Oc2cc(-n3c(=O)cc(C(F)(F)F)n(C)c3=O)c(F)cc2Cl)n1 [Compound 1-45, 2-{2-chloro-4-fluoro-5-[3-methyl-2,6-dioxo-4-(trifluoromethyl)-1,2,3,6-tetrahydropyrimidin-1-yl]phenoxy}-6-methoxy-4-(methoxycarbonyl)methoxypyrimidine]	completely controlled	completely controlled	10	10	10	10	10	10	9	9	–	–	–	–	–	–	–	–
COC(=O)COc1cc(OC)nc(Nc2cc(-n3c(=O)cc(C(F)(F)F)n(C)c3=O)c(F)cc2Cl)n1 [Compound 1-67, 2-{2-chloro-4-fluoro-5-[3-methyl-2,6-dioxo-4-(trifluoromethyl)-1,2,3,6-tetrahydropyrimidin-1-yl]phenylamino}-6-methoxy-4-(methoxycarbonyl)methoxypyrimidine]	–	–	–	–	–	–	–	–	–	–	10	10	10	10	9	9	8	9
COc1cc(OC)nc(Nc2cc(-n3c(=O)cc(C(F)(F)F)n(C)c3=O)c(F)cc2Cl)n1 [A, reference compound]	–	–	–	–	–	–	–	–	–	–	4	4	4	5	6	8	2	3
